From publication PMC6642116, “Structural and functional analyses of hepatitis B virus X protein BH3-like domain and Bcl-xL interaction” (Nature Communications, 2019) come the findings set out here.

Common to all, as to assay type: cell-based
Data set [1] concerns HBV replication from pHBV1.3-Xnull replicon in HepG2 cells. Kind of data set: HBV production rescue assay, PEP-1 delivered peptides. As to conditions: HepG2 + pHBV1.3-Xnull, peptide/PEP-1, 48 h. The text has this: Fig. 3 The HBx-BH3-like domain is critical for HBV production in HepG2 cells. a–e C-terminal biotinylated HBx-aa113–135 peptides (both wild-type (WT) and the W120A/L123A double mutant) were delivered into HepG2 cells transfected with pHBV1.3-Xnull using PEP-1 nanoparticles (Methods) and analyzed by streptavidin-FITC (fluorescein isothiocyanate) for transfection efficiency (a). Scale bar is 50 μm. An unrelated 23-aa peptide was used as a control (Control). The intracellular expression levels of HBV core antigen (HBcAg (b) and the levels of HBV e-antigen (HBeAg) (c), HBV S-antigen (HBsAg) (d), and HBV DNA (e) in the culture medium collected from HepG2 cells were measured (Methods). The results are shown as fold change to the WT HBx-aa113–135 peptide (WT). f–i) HepG2 cells were co-transfected with pHBV1.3-Xnull and pTT22m-HBx-WT (WT), pHBV1.3-Xnull and pTT22m-HBx(W120A/L123A), or pHBV1.3-Xnull and the pTT22m vector control (Control). Intracellular expression levels of HBcAg (f) and the levels of HBeAg (g), HBsAg (h), and HBV DNA (i) in the culture medium from HepG2 cells were measured similarly. The results are shown as fold change to the combination of pHBV1.3-Xnull and pTT22m-HBx-WT (WT). Data shown represent mean ± SD. Significance is indicated on the top. **P < 0.01, ***P < 0.001, ****P < 0.0001; two-tailed unpaired t tests (n = 3 biologically independent samples). Source data are provided as a Source Data file
HepG2 cells were grown in Dulbecco’s modified Eagle’s medium (DMEM) with 10% Gibco fetal bovine serum. C-terminal biotinylated-labeled HBx peptides were transfected into HepG2 cells by pep-1[16], a peptide carrier for the delivery of biologically active proteins into mammalian cells. HBx peptides and pep-1 were firstly dissolved in DMEM to 1 mg/ml, then adjusted to 500 µl DMEM to a final concentration of 100 µg/ml, and incubated at 37 °C for 30 min in the tube. The incubated peptide mixture was added into pre-seeded HepG2 cells in a 24-well plate and incubated for another 30 min, and then washed five times by phosphate-buffered saline (PBS) to remove the free peptides. The transfected C-terminal biotinylated HBx peptides were detected by using streptavidin-FITC (fluorescein isothiocyanate) equipment (Thermo Fisher Scientific) following the standard immunostaining methods.
Transfection of plasmids into HepG2 cells was carried out using X-tremeGENE HP DNA Transfection Reagent (Roche), following the manufacturer’s protocol. A transfection efficiency of 20–30% could be achieved. Cells were pre-seeded 24 h before transfections. pHBV1.3-HBx-null plasmid was transfected into HepG2 cells for 6 h, then HBx-aa113–135, HBx-aa113–135-(W120A, L123A), or control peptide was transfected by pep-1 carrier and incubated for additional 48 h without the removal of peptides. The culture media of the HepG2 cells were harvest for analysis.
(§1) The levels of HBsAg, HBeAg, and HBcAg expression were measured by chemiluminescence, using Commercial Assay Kit (Wantai, Beijing, China). Northern blot analysis of HBV RNA, Southern blot analysis of HBV DNA, and real-time PCR quantification of HBV DNA are described in the Supplementary Methods.

The test system of data set [2] is HBV in HepG2.2.15 cells. Put plainly: Inhibition of HBV in HepG2.2.15 cells by PEP-1 delivered peptides. Conditions: for HBV DNA: HepG2.2.15 culture medium, peptide via PEP-1, 48 h; for HBsAg in culture medium: HepG2.2.15, peptide via PEP-1, 48 h. How it is done: (§2) Fig. 6 The HBx-aa118–127 peptide, but not ABT-263, inhibits HBV replication and transcription in HepG2.2.15 cells. a HepG2.2.15 cells were treated with 125, 250, 500, and 1000 nM of ABT-263 for 2 days. Cytoplasmic HBV viral particles were isolated and the viral DNA replication intermediates were quantified (Methods). The results represent the fold change of the replicative intermediates in HepG2.2.15 cells from the indicated treatments, compared with those without treatment. b HepG2.2.15 cells were treated with the indicated concentrations of ABT-263 for 2 days. The lysate was analyzed by immunoblotting using antibodies to caspase-3 (CASP3) and GAPDH (glyceraldehyde 3-phosphate dehydrogenase). c, d The HBx-aa113–135, HBx-aa118–127, or the control peptides were delivered into HepG2.2.15 cells using PEP-1 nanoparticles (Methods). The levels of HBV DNA (c) and the levels of HBV S-antigen (HBsAg) expression (d) in culture medium collected from HepG2.2.15 cells were measured (Methods). The results are shown as fold change compared to that of the control peptide. e–g HepG2-NTCP cells were transfected with HBx118–127 peptide with concentration of […], and 50 μg/ml or unrelated control peptide during HBV infection (multiplicity of infection (MOI) = 200), respectively. e HBV e-antigen (HBeAg), f HBV DNA, and g cell viability were measured at day 8 after HBV infection. Data shown represent mean ± SD. Significance is indicated on the top. Not significant (ns): *P < 0.05, **P < 0.01; two-tailed unpaired t tests (n = 3 biologically independent samples). Source data are provided as a Source Data file
To evaluate the potential inhibitory effects of peptides on HBV replication and transcription in HepG2.2.15 cells, HepG2.2.15 cells were pre-seeded 24 h before peptides treatment. HBx-aa113–135, HBx-aa118–127, or control peptide was transfected through pep-1 carriers and incubated for additional 48 h without the removal of peptides. The culture media of HepG2.2.15 cells were then harvested for analysis.
as §1

For data set [3], the system named is HepG2-NTCP cells. Kind of data set: Cell viability (CCK8 assay) of HBV-infected HepG2-NTCP cells. More on the design: Cell viability: unit not given here. Conditions: CCK8, unrelated control peptide, day 8. How it is done:
as §2
HBx-aa118-127 peptide treatment.
obvious cytotoxicity at concentrations between 12.5-200 µg/mL (Fig. 6g). Taken together, […]

Take “SSTTSTGPCKTCTTPAQGTSMFP-K-biotin [Control, equal-length unrelated control biotin-labeled peptide]”: the results for the HBcAg in cells in data set [1] (replicate 1), in data set [1] (replicate 2) and in data set [1] (replicate 3) were 0.472 fold-change to WT, 0.663 fold-change to WT and 0.512 fold-change to WT, respectively. The “HBeAg in culture medium” value is 0.329 fold-change to WT in data set [1] (replicate 1), 0.389 fold-change to WT in data set [1] (replicate 2) and 0.344 fold-change to WT in data set [1] (replicate 3). Besides, the “HBsAg in culture medium” value is recorded as 0.215 fold-change to WT in data set [1] (replicate 1); 0.227 fold-change to WT in data set [1] (replicate 2); 0.207 fold-change to WT in data set [1] (replicate 3); 1.097 fold-change to control in data set [2] (replicate 1); 0.872 fold-change to control in data set [2] (replicate 2); 1.030 fold-change to control in data set [2] (replicate 3). For the same substance, the entries for the “Secreted HBV DNA” value in data set [1] (replicate 1), in data set [1] (replicate 2) and in data set [1] (replicate 3) were 990600 Copies/mL, 564700 Copies/mL and 887700 Copies/mL, respectively. In addition, the results for the “HBV DNA” value in data set [2] (replicate 1), in data set [2] (replicate 2) and in data set [2] (replicate 3) were 0.944 fold-change to control, 1.019 fold-change to control and 1.037 fold-change to control, respectively. Further, the Cell viability in data set [3] (replicate 1) is recorded as 102.557; in data set [3] (replicate 2), 97.209; in data set [3] (replicate 3), 100.234.
